Test results published in patent US5358947A, “Angiotensin II receptor blocking 2,3-substituted pyrazolo[1,5-a]-1,3,5-triazin-4(3H)-ones” (American Cyanamid Company, priority 1993, dated 1994).
Where “and” joins values, the source holds several entries; their conditions need not be identical. Equal values may be shown once.

Test system: ANGIOTENSIN II (AII) VASOPRESSOR RESPONSE
Assay: AII Challenge: angiotensin II (AII) vasopressor response in conscious rats
Type: in vivo
Set-up: Response After AII / Change / Average Change: unit not given here
Settings: for Response After AII / Change / Control Before AII: individual rat; for Control Before AII: in mmHg (unit assumed); for % Inhibition / Average Change: n = 2
Summary of the method: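 Conscious male Okamoto-Aoki SHR (16-20 weeks, ~330 g), aorta/vena cava cannulated, challenged with AII 0.05 and 0.1 ug/kg i.v. before and at 30-300 min after compound dosed i.v., i.p. or orally. Systolic pressure rise expressed relative to each rat's predose response (100%).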

[1] = 10 mg/kg i.v., AII 0.05 mcg/kg, 30 min post dose
[2] = 10 mg/kg i.v., AII 0.05 mcg/kg, 30 min post dose, listed as Ex. 20
[3] = 10 mg/kg i.v., AII 0.1 mcg/kg, 30 min post dose, listed as Ex. 20
[4] = 10 mg/kg i.v., AII 0.1 mcg/kg, 30 min post dose
[5] = 20 mg/kg i.v., AII 0.05 mcg/kg, 60 min post dose
[6] = 20 mg/kg i.v., AII 0.05 mcg/kg, 60 min post dose, listed as Ex. 20
[7] = 20 mg/kg i.v., AII 0.05 mcg/kg, 90 min post dose
[8] = 20 mg/kg i.v., AII 0.05 mcg/kg, 90 min post dose, listed as Ex. 20
[9] = 20 mg/kg i.v., AII 0.05 mcg/kg, 120 min post dose
[10] = 20 mg/kg i.v., AII 0.05 mcg/kg, 120 min post dose, listed as Ex. 20
[11] = 20 mg/kg i.v., AII 0.05 mcg/kg, 180 min post dose
[12] = 20 mg/kg i.v., AII 0.05 mcg/kg, 180 min post dose, listed as Ex. 20
[13] = 20 mg/kg i.v., AII 0.05 mcg/kg, 240 min post dose
[14] = 20 mg/kg i.v., AII 0.05 mcg/kg, 240 min post dose, listed as Ex. 20
[15] = 20 mg/kg i.v., AII 0.05 mcg/kg, 300 min post dose, listed as Ex. 20
[16] = 20 mg/kg i.v., AII 0.05 mcg/kg, 300 min post dose
[17] = 20 mg/kg i.v., AII 0.1 mcg/kg, 60 min post dose
[18] = 20 mg/kg i.v., AII 0.1 mcg/kg, 60 min post dose, listed as Ex. 20
[19] = 20 mg/kg i.v., AII 0.1 mcg/kg, 90 min post dose
[20] = 20 mg/kg i.v., AII 0.1 mcg/kg, 90 min post dose, listed as Ex. 20
[21] = 20 mg/kg i.v., AII 0.1 mcg/kg, 120 min post dose
[22] = 20 mg/kg i.v., AII 0.1 mcg/kg, 120 min post dose, listed as Ex. 20
[23] = 20 mg/kg i.v., AII 0.1 mcg/kg, 180 min post dose
[24] = 20 mg/kg i.v., AII 0.1 mcg/kg, 180 min post dose, listed as Ex. 20
[25] = 20 mg/kg i.v., AII 0.1 mcg/kg, 240 min post dose, listed as Ex. 20
[26] = 20 mg/kg i.v., AII 0.1 mcg/kg, 240 min post dose
[27] = 20 mg/kg i.v., AII 0.1 mcg/kg, 300 min post dose, listed as Ex. 20
[28] = 20 mg/kg i.v., AII 0.1 mcg/kg, 300 min post dose

For `CCCCc1nc2c(Br)cnn2c(=O)n1Cc1ccc(-c2ccccc2-c2nn[nH]n2)cc1` [Example 20], the “Response After AII” value [1] was 245, the Change [2] was 38 and 15 and the “Response After AII” value [2] was 215. The “Control Before AII” value [2] was 207 and 200, the “% Inhibition” value [1] was 34% and the “Average Change” value [1] was 26.5. For the same compound, the Change [3] was 45 and 35, the “Response After AII” value [3] was 260 and 235 and the “Control Before AII” value [3] was 215 and 200. The “% Inhibition” value [4] was 36%, the “Average Change” value [4] was 40 and the Change [5] was 20. For the same compound, the “Response After AII” value [5] was 200, the “Response After AII” value [6] was 215 and the “Control Before AII” value [6] was 195 and 180. For the same compound, the “% Inhibition” value [5] was 50%, the “Average Change” value [5] was 20 and the “Response After AII” value [7] was 200. For the same compound, the Change [8] was 10 and 25, the “Response After AII” value [8] was 225 and the “Control Before AII” value [8] was 215 and 175. The “% Inhibition” value [7] was 56%, the “Average Change” value [7] was 17.5 and the “Response After AII” value [9] was 250. The Change [10] was 45 and 20, the “Response After AII” value [10] was 215 and the “Control Before AII” value [10] was 205 and 195. For the same compound, the “% Inhibition” value [9] was 19%, the “Average Change” value [9] was 32.5 and the “Response After AII” value [11] was 210. For the same compound, the “Control Before AII” value [11] was 185, the Change [12] was 40 and 25 and the “Response After AII” value [12] was 225. For the same compound, the “% Inhibition” value [11] was 19%, the “Average Change” value [11] was 32.5 and the “Response After AII” value [13] was 230. The “Control Before AII” value [13] was 185, the Change [14] was 45 and 40 and the “Response After AII” value [14] was 225. For the same compound, the “% Inhibition” value [13] was -6%, the “Average Change” value [13] was 42.5 and the Change [15] was 50 and 35. For the same compound, the “Response After AII” value [15] was 240 and 235, the “Control Before AII” value [15] was 190 and 200 and the “% Inhibition” value [16] was -6%. For the same compound, the “Average Change” value [16] was 42.5, the “Response After AII” value [17] was 200 and the Change [18] was 15 and 20. The “Response After AII” value [18] was 215, the “Control Before AII” value [18] was 200 and 180 and the “% Inhibition” value [17] was 72%. For the same compound, the “Average Change” value [17] was 17.5, the “Response After AII” value [19] was 245 and the Change [20] was 40 and 30. For the same compound, the “Response After AII” value [20] was 215, the “Control Before AII” value [20] was 205 and 185 and the “% Inhibition” value [19] was 44%. The “Average Change” value [19] was 35, the “Response After AII” value [21] was 250 and the Change [22] was 35 and 20. For the same compound, the “Response After AII” value [22] was 215, the “Control Before AII” value [22] was 215 and 195 and the “% Inhibition” value [21] was 56%. The “Average Change” value [21] was 27.5, the “Response After AII” value [23] was 225 and the Change [24] was 30 and 60. The “Control Before AII” value [24] was 195 and 165, the “% Inhibition” value [23] was 28% and the “Average Change” value [23] was 45. The Change [25] was 60 and 55, the “Response After AII” value [25] was 260 and 245 and the “Control Before AII” value [25] was 200 and 190. For the same compound, the “% Inhibition” value [26] was 8%, the “Average Change” value [26] was 57.5 and the Change [27] was 45 and 55. For the same compound, the “Response After AII” value [27] was 265 and 245, the “Control Before AII” value [27] was 220 and 190 and the “% Inhibition” value [28] was 20%. For the same compound, the “Average Change” value [28] was 50.
